Literature values, collected in patent US20120302500A1, “USE OF SO[…] IN MENINGIOMA” (NOVARTIS AG, priority 2008, published 2012).
Starred links: 1 amine or outer side, 2 acyl side, 3 side chain; linkers in the order of their positions; H or OH if unused. Non-standard residues stand in square brackets, D forms with d. Residues, ends and D or L forms follow the SMILES beside them. Groups on a side chain read outwards from the residue. *: point of attachment. Ethylenediamine = C(CN[*:2])N[*:1]; Hyp = O=C(O)[C@@H]1C[C@@H](O)CN1; Phg = N[C@H](C(=O)O)c1ccccc1; CO = O=C([*:1])[*:2]; Bn = c1ccc(C*)cc1

Settings: in vivo

**Q.** With NCCCC[C@@H]1NC(=O)[C@@H](Cc2c[nH]c3ccccc23)NC(=O)[C@H](c2ccccc2)NC(=O)[C@@H]2C[C@@H](OC(=O)NCCN)CN2C(=O)[C@H](Cc2ccccc2)NC(=O)[C@H](Cc2ccc(OCc3ccccc3)cc2)NC1=O [pasireotide, cyclo[{4-(NH2—C2H4—NH—CO—O—)Pro}-Phg-DTrp-Lys-Tyr(4-Bzl)-Phe]] (cyclo([Hyp]([CO-Ethylenediamine])[Phg][dW]KY(Bn)F)) as the compound, how does the half-life read?
**A.** The half-life was 11 h.
